Consider 16 compounds from patent US8399512B2, “Biocompatible biodegradable fumagillin analog conjugates” (Mersana Therapeutics, Inc., priority 2007, dated 2013).

pIC50: −log10 of the molar value.

Data set [1] concerns human umbilical vein endothelial cells (HUVECs). The data set is described as follows: Inhibitory effect on HUVEC cell growth (MTS/PES colorimetry). Format: cell-based. The conditions noted are these: Homo sapiens, 120 h, cultured 5 days, MTS/PES absorbance 490 nm. The procedure:
Using human umbilical vein endothelial cells (HUVECs), the effect of the fumagillin analog conjugates and the fumagillin analogs on cell growth was evaluated.
The HUVECs were added to M199 medium supplemented with 20% FBS, after which the cells were incubated at 37° C. under 5% CO2. 96-well plates were seeded at 5,000 cells/well in a total volume of 100 μL. The cells were left overnight to attach to the plate. Cells were subcultured a maximum of 15 times before being discarded.
To evaluate the inhibitory activity of the fumagillin conjugate or the fumagillin analog alone on the growth of HUVEC cells, the conjugate or fumagillin analog was dissolved in the required amount of 0.9% saline, vortexed briefly to wet and disperse the solids, followed by vortexing for a total of 30 min. […] The cells were treated with the conjugate solution or fumagillin analog solution at various concentrations ranging from 30 nM to 0.01 nM, and cultured for 5 days at 37° C.
Colorimetry was performed to determine the extent of cell growth by adding 20 μL of MTS/PES reagent to each well, incubation for 4 h at 37° C. followed by measuring the absorbance at 490 nm.

In the next data set the target is human MetAP-2 enzyme (Homo sapiens, UniProt P50579). The data set is described as follows: MetAP-2 inhibition (release of AMC from Met-Gly-Pro-AMC). The class given is biochemical. The procedure: The test samples were evaluated for their ability to inhibit human MetAP-2 enzyme. The compounds were added at varying concentrations to human MetAP-2 enzyme (6 nM) in a buffered medium containing 20 mM Hepes, pH 7.4, 100 mM KCl, 0.1 mM Co(II), 10% glycerol, 5 mg/ml of L-Amino acid oxidase, 10 mg/ml of peroxidase, 10 mg/ml of o-dianisidine, and 2 mM of Met-Ser-Ala at 37° C. After 10 minutes incubation the reaction is started by adding the substrate Met-Gly-Pro-AMC to 2 mM and the release of AMC is measured with a Decan Plate reader (Excitation at 345 nm, emission at 445 nm). The kinetic data is recorded at 30 sec intervals for 30 min. Table 1 lists some of the conjugates and compounds tested along with their approximate IC50 values for inhibiting Met-AP2.

Data set [2] concerns B16F10 tumor cells. The data set is described as follows: Tumor growth delay in B16F10 mouse melanoma. The class given is in vivo. Conditions: IV, q3d × 4, BDF1 mice. The procedure: BDF1 female mice (N=6) with 1×10^6 B16F10 tumor cells positioned subcutaneous in the flank were treated with various fumagillin conjugates of the invention. Tumor growth was monitored in parallel with positive and negative controls of cyclophosphamide and saline respectively. Treatment began when tumors reached an average size of 80-120 mg and tumor volumes were measured two times per week until animals reached an endpoint tumor volume of 2 grams or 45 days, whichever came first. Conjugates were administered as solutions in saline intravenously at dose levels of 30-100 mg/kg (expressed as fumagillin analog equivalents) on a schedule of q3dx4. Treatment outcomes were assessed in terms of percent tumor growth delay (% TGD), (see FIG. 1) defined as the percent increase in median time to endpoint for mice treated with an agent compared to those treated with saline.

In data set [3] the test system is B16F10 tumor cells. The data set is described as follows: Tumor growth delay in B16F10 mouse melanoma. Format: in vivo. Conditions: 80 mg/kg fumagillin analog equiv., IV, qod × 4, BDF1 mice.
The nature of data set [4]: Open field activity levels in mice. The class given is in vivo, mouse. The conditions noted are these: C57B1/6 mice, 50-100 mg/kg for four weeks; conjugates IV, TNP-470 subcutaneously; versus saline. As to the method:
C57B1/6 female mice (N=8) were housed until they reached 11 weeks of age. Animals were then regularly administered with fumagillin conjugates or TNP-470 and their activity levels monitored in an open field arena. Activity levels were assessed with saline as a control. Conjugates were administered as solutions in saline intravenously at dose levels of 50-100 mg/kg (expressed as fumagillin-analog equivalents) and TNP-470 was administered subcutaneously at dose levels of 50-100 mg/kg. Dosing was performed for four weeks on schedules ranging from q2d to once weekly, and activity levels were observed four times throughout the study: (1) prior to compound administration, (2) after one week of dosing, (3) after two weeks of dosing, and (4) following the final week of dosing. Animals were placed in the open field arena for 10 minutes per trial and their activity monitored in terms of travel distance, peripheral squares crossed, center squares crossed, and rearing events.

The mark [5] stands for this setting: 80 mg/kg fumagillin analog equiv.

Sequence of human MetAP-2 enzyme (P50579 whole entry): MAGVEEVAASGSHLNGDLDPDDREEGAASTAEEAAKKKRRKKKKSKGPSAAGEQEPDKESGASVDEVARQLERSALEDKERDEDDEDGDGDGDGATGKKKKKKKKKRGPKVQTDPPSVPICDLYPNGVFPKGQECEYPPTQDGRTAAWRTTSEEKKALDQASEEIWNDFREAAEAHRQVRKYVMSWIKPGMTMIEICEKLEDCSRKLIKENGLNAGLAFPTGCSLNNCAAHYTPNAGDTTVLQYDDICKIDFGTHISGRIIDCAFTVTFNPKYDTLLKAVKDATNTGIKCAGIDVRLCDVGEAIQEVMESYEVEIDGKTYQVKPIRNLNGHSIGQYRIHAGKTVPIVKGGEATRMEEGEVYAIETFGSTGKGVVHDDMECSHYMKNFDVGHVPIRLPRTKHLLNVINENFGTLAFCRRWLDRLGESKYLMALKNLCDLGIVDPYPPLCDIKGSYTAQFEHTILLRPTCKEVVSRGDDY

In the case of `CO[C@H]1[C@H](C2(C)O[C@@H]2CC=C(C)C)[C@]2(CC[C@H]1OC(=O)NCc1ccc(N)cc1)CO2` (stereo partly shown) [Compound 8], the pIC50 in data set [1] was greater than 7.60; against human MetAP-2 enzyme it was greater than 8.00.

`COc1ccc2c(ccn2C(=O)O[C@@H]2CC[C@]3(CO3)[C@@H](C3(C)O[C@@H]3CC=C(C)C)[C@@H]2OC)c1` (stereo partly shown) [Compound 23] gave a pIC50 in data set [1] greater than 7.60. For the same compound, the “% TGD” value in the data set with B16F10 tumor cells [2] (setting [5]) is reported as 5-20%.

In data set [1], `CO[C@@H]1[C@H](O)CC[C@]2(CO2)[C@H]1C1(C)O[C@@H]1CC=C(C)C` (stereo partly shown) [Compound 25] gave a pIC50 of less than 7.52. Further, in the data set on B16F10 tumor cells [2] (setting [5]), the “% TGD” value is listed as 20-50%.

The compound `CO[C@H]1[C@H](C2(C)O[C@@H]2CC=C(C)C)[C@]2(CC[C@H]1OC(=O)N1CC3CC1CN3)CO2` (stereo partly shown) [Compound 26] had a pIC50 in data set [1] greater than 7.60. The “% TGD” value in the data set on B16F10 tumor cells [2] (60 mg/kg fumagillin analog equiv.) is 5-20%.

Consider `COC1=CCC[C@]2(CO2)[C@H]1C1(C)O[C@@H]1CC=C(C)C` (stereo partly shown) [Compound 27], for which the pIC50 in data set [1] was greater than 7.60. The “% TGD” value in the data set on B16F10 tumor cells [2] (50 mg/kg fumagillin analog equiv.) is 5-20%.

In data set [1], `CO[C@H]1[C@H](C2(C)O[C@@H]2CC=C(C)C)[C@]2(CC[C@H]1OC(=O)NC(=O)CSCCNC(=O)C1CCCN1C(=O)OCC1c3ccccc3-c3ccccc31)CO2` (stereo partly shown) [Compound 31] showed a pIC50 greater than 7.60. Moreover, in the data set with B16F10 tumor cells [2] (setting [5]), the “% TGD” value is on record as 20-50%.

In data set [1], `COc1ccc2[nH]cc(CCC(=O)O[C@@H]3CC[C@]4(CO4)[C@@H](C4(C)O[C@@H]4CC=C(C)C)[C@@H]3OC)c2c1` (stereo partly shown) [Compound 32] gave a pIC50 greater than 7.60. In addition, in the data set on B16F10 tumor cells [2] (setting [5]), the “% TGD” value is on record as 20-50%.

As to `CO[C@H]1[C@H](C2(C)O[C@@H]2CC=C(C)C)[C@]2(CC[C@H]1OC(=O)C1CCC(CNC(=O)OCC3c4ccccc4-c4ccccc43)CC1)CO2` (stereo partly shown) [Compound 33], in data set [1], the pIC50 is less than 7.52. The “% TGD” value in the data set on B16F10 tumor cells [2] (65 mg/kg fumagillin analog equiv.) is 5-20%.

`CO[C@H]1[C@H](C2(C)O[C@@H]2CC=C(C)C)[C@]2(CC[C@H]1OC(=O)NC(=O)CSc1cccc(N)c1)CO2` (stereo partly shown) [Compound 35] gave a pIC50 in data set [1] greater than 7.60. The “% TGD” value in the data set on B16F10 tumor cells [2] (setting [5]) is reported as 20-50%.

For `CO[C@H]1[C@H](C2(C)O[C@@H]2CC=C(C)C)[C@]2(CC[C@H]1NC(=O)C13CCC(C(=O)NCCCO)(CC1)CC3)CO2` (stereo partly shown) [Compound 38], the pIC50 in data set [1] was 7.00 to 7.60. The “% TGD” value with B16F10 tumor cells [2] (setting [5]) is recorded as 5-20%.

Consider `CO[C@@H]1[C@H](NC(=O)NC(=O)CSc2ccc(N)cc2)CC[C@]2(CO2)[C@H]1[C@@]1(C)O[C@@H]1CC=C(C)C` [Compound 39], for which the pIC50 was greater than 7.60 in data set [1] and greater than 8.00 against human MetAP-2 enzyme.

In data set [1], `CO[C@H]1[C@H](C2(C)O[C@@H]2CC=C(C)C)[C@]2(CC[C@H]1NC(=O)C13CCC(C(=O)O)(CC1)CC3)CO2` (stereo partly shown) [Compound 40] showed a pIC50 of 7.00 to 7.60. For the same compound, the “% TGD” value in the data set with B16F10 tumor cells [3] is given as 20-50%.

For `CO[C@H]1[C@H](C2(C)O[C@@H]2CC=C(C)C)[C@]2(CC[C@H]1NC(=O)CCl)CO2` (stereo partly shown) [Compound 44], the pIC50 in data set [1] is greater than 7.60. In the data set with B16F10 tumor cells [2] (setting [5]), the “% TGD” value is listed as 5-20%.

For `CO[C@H]1[C@H](C2(C)O[C@@H]2CC=C(C)C)[C@]2(CC[C@H]1OC(=O)NCCc1ccc(NC(=O)[C@H](C)N)cc1)CO2` (stereo partly shown) [Compound 51], the pIC50 was greater than 7.60 in data set [1] and greater than 8.00 on human MetAP-2 enzyme.

With `CO[C@H]1C([C@@]2(C)O[C@@H]2CC=C(C)C)[C@]2(CC[C@H]1OC(=O)N[C@@H](C(N)=O)C(C)C)CO2` (stereo partly shown) [PPI-2458, reference compound], the pIC50 on human MetAP-2 enzyme was greater than 8.00.

Take `CO[C@H]1C([C@@]2(C)O[C@@H]2CC=C(C)C)[C@]2(CC[C@H]1OC(=O)NC(=O)CCl)CO2` (stereo partly shown) [TNP-470, reference compound]: the pIC50 against human MetAP-2 enzyme was greater than 8.00. In addition, the rearing-event activity levels result in data set [4] is recorded as “increased rearing-event activity levels”.
